Data on one compound can be found in patent US20230133087A1, “ACTIVE COMPOUND COMBINATIONS AND FUNGICIDE COMPOSITIONS COMPRISING THOSE” (priority 2020, published 2023).

Type in all cases: cell-based
In one test the test system is Botrytis cinerea. As to the kind of experiment: In vitro-test with fungal microorganisms: Botrytis cinerea. Conditions: 2.5 ppm. The protocol:
(§1) The degree of efficacy, expressed in % is denoted. 0% means an efficacy which corresponds to that of the control while an efficacy of 100% means that no disease is observed.
(§2) Wells of 96-well microtiter plates are filled with 30 μl of a preparation of test compound or compound combination in methanol+emulsifier alkylaryl-polyglycol-ether. Thereafter, the solvent is evaporated in a hood. At the next step, into each well 200 μl of liquid growth medium is given, that has been amended with an appropriate concentration of spores or mycelium suspension of the test fungus.
(§3) With the aid of a photometer the extinction in all wells is measured at the wavelength of 600 nm.
(§4) The microtiter plates are incubated for 3 to 7 days at 20° C. and 85% relative humidity. After the incubation inhibition of growth is determined photometrically. Efficacy is calculated in relation to the untreated control, 0% efficacy means fungal growth as high as in untreated control while 100% efficacy means no fungal growth is measured.

In the next test the test system is Colletotrichum coccodes. As to the kind of experiment: In vitro-test with fungal microorganisms: Colletotrichum coccodes. Conditions: 0.02 ppm. The protocol:
as §1, §2, §3, §4

Another test concerns Parastasonospora nodorum. The experiment in a line: In vitro-test with fungal microorganisms: Parastasonospora nodorum. The procedure:
as §1, §2, §3, §4

Another test deals with Diaporthe citri. As to the kind of experiment: In vitro-test with fungal microorganisms: Diaporthe citri. The procedure: as §1, §2, §3, §4
The subject of a further test is Alternaria alternata. As to the kind of experiment: In vitro-test with fungal microorganisms (microtiter plate, photometric growth inhibition): Alternaria alternata. The note with it: 2.5 ppm. The procedure:
as §1, §2, §3, §4

The next test deals with Cercospora beticola. The experiment in a line: In vitro-test with fungal microorganisms: Cercospora beticola. The procedure: as §1, §2, §3, §4
The test system of another test is Fusarium culmorum. As to the kind of experiment: In vitro-test with fungal microorganisms: Fusarium culmorum. The procedure:
as §1, §2, §3, §4

Several values for one entry are separate records, joined by “and”; a condition that tells them apart may be missing. Equal entries are not always repeated.

On to `COC(=O)C(O)(Cn1cncn1)c1ccc(Oc2ccc(Cl)cc2)cc1Cl` (centres unmarked) [(I-1), Methyl 2-[2-chloro-4-(4-chlorophenoxy)phenyl]-2-hydroxy-3-(1,2,4-triazol-1-yl)propanoate], for which the efficacy was 62% in the test on Botrytis cinerea; 63% with Botrytis cinerea (with penflufen 1 ppm, metyltetraprole 0.08 ppm); 0% and 4% in the test on Colletotrichum coccodes; 0% in the test on Parastasonospora nodorum (Table H1, 0.02 ppm); 99% in the test with Parastasonospora nodorum (Table H1, 2.5 ppm); 2% and 0% and 3% in the test with Parastasonospora nodorum (Table H2, 0.02 ppm). Also, the efficacy was determined as 96% in the test on Parastasonospora nodorum (Table H2, 2.5 ppm); 9% with Parastasonospora nodorum (Table H3, 0.02 ppm); 99% with Diaporthe citri (Table F1, 2.5 ppm); 2% with Diaporthe citri (Table F2, 0.02 ppm); 92% in the test on Diaporthe citri (Table F2, 0.5 ppm); 98% in the test on Diaporthe citri (Table F2, 2.5 ppm). Further, the efficacy in the test with Alternaria alternata is recorded as 92%; in the test with Cercospora beticola (0.02 ppm), 50%; in the test with Cercospora beticola (0.1 ppm), 36%; in the test on Cercospora beticola (0.5 ppm), 74%; with Cercospora beticola (2.5 ppm), 99%; in the test with Fusarium culmorum (0.02 ppm), 9%. The efficacy in the test with Fusarium culmorum (0.1 ppm) was 6% and 0%; in the test on Fusarium culmorum (0.5 ppm), 0%.
